Measured values reported in patent US20260240913A1, “METHODS FOR PRODUCING STABLE HUMAN CHONDROCTYES AND THEIR USE FOR PROMOTING CARTILLAGE GROWTH AND REPAIR” (Cambridge Enterprise Limited, priority 2023, published 2026).

Assays:
[1] = test system: hBMSC/SSC organoids; experiment: Pan-ID inhibition in hBMSC/SSC organoids during chondrogenic differentiation, qRT-PCR of chondro-osteogenic genes; format: cell-based, human
Experimental: Chondrogenic Differentiation of hBMSCs/SSC-derived Organoids: To generate control organoids, 2.5×10^5 hBMSCs/SSCs (passage 2) were suspended in 1 mL chondrogenic medium—which consisted of high glucose Dulbecco's Modified Eagle Medium (DMEM) with sodium pyruvate (ThermoFisher, Cat. No. 11995073), 1% insulin-transferrin-selenium (ThermoFisher, Cat. No. 51500056), 100 nM dexamethasone, 50 ug/mL L-ascorbic acid phosphate magnesium salt n-hydrate, 1% penicillin/streptomycin, and 10 ng/mL TGFβ1 (Peprotech, Cat. No. 100-21)—in 14 mL conical tubes. The same process was employed to generate HyA-FMB organoids, except each conical tube contained 3 mg of pre-sterilized HyA-FMBs (70% ethanol washes overnight), which were constructed according to established protocols (Kuznetsov et al., Stem Cells Translational Medicine, 26, 586-592. //doi.org/10.1016/j.joca.2018.02.293, 2019). […]
qRT-PCR. […] Lysates were processed according to Qiagen's RNeasy Mini Kit with DNAse treatment (Cat. No. 74004), and RNA quality and concentration was measured using NanoDrop. cDNA was constructed using SuperScript III First-Strand Synthesis SuperMix (ThermoFisher, Cat. No. 11752050) with no Reverse Transcriptase added to negative controls. Samples were measured in triplicate using the Quantstudio 6 Flex system (Applied Biosystems), and ΔΔCT values were calculated using GAPDH as internal controls.

[2] = test system: hBMSC/SSC; conditions: chronic BMP blockade; Franco et al. 2022; cited from earlier work
[3] = test system: Hedgehog; conditions: according to Wu et al. 2021; cited from earlier work
[4] = test system: hBMSCs/SSCs; experiment: scRNA-seq of hBMSC/SSC organoids with or without HyA-FMBs during chondrogenic differentiation; format: cell-based, human; conditions: day 10 of chondrogenic differentiation
Experimental: Chondrogenic Differentiation of hBMSCs/SSC-derived Organoids: To generate control organoids, 2.5×10^5 hBMSCs/SSCs (passage 2) were suspended in 1 mL chondrogenic medium—which consisted of high glucose Dulbecco's Modified Eagle Medium (DMEM) with sodium pyruvate (ThermoFisher, Cat. No. 11995073), 1% insulin-transferrin-selenium (ThermoFisher, Cat. No. 51500056), 100 nM dexamethasone, 50 ug/mL L-ascorbic acid phosphate magnesium salt n-hydrate, 1% penicillin/streptomycin, and 10 ng/mL TGFβ1 (Peprotech, Cat. No. 100-21)—in 14 mL conical tubes. […]
Control and HyA-FMB organoids from days 1-10 and ectopic HyA-FMB transplant were digested in high-glucose DMEM containing 0.2% collagenase II (ThermoFisher, Cat. No. 17101015), 0.1% hyaluronidase (Merck, Cat. No. H3506), and 0.1% dispase (Sigma, Cat. No. D4693) with gentle pipetting every 20-30 minutes. […] Only samples with >95% viability were submitted for single-cell capture, as measured by Vi-CELL BLU Cell Viability Analyzer (Beckman Coulter). […] Reads were mapped using GRCh38-2020-A reference transcriptome, and libraries were processed using Cell Ranger version 7.0. […] Differentially expressed genes, which represented at least 25% of each cluster (p<0.05), were analyzed using gProfiler (biit.cs.ut.ee/gprofiler/gost) for functional enrichment analysis and cell cluster annotation.

[5] = test system: sclerotome cells; experiment: Chondrogenic differentiation of hiPSC-derived sclerotome cells (pellet cultures, chondrospheroids), staining and Incucyte imaging; format: cell-based, human; conditions: pellet cultures from all sclerotome cells; 10 ng/mL each factor; across 42 days
Experimental: Staining Procedure. Paraffin-embedded tissues were used for immunofluorescence. Tissues were sectioned at 7 μm and heated for 1 hour at 60° C., then rehydrated in 2 washes of xylene (5 minutes), 100% ethanol (5 minutes), 95% ethanol (5 minutes), 70% ethanol (5 minutes), and distilled water (5 minute). Two different antigen retrieval methods were used: (1) for staining with COL1A1, COL2A1, COL10A1, PRG4, and hVIMENTIN, tissues were treated with 2 mg/mL hyaluronidase/PBS solution for 1 hour at 37° C., followed by a PBS wash and treatment with Pepsin (Millipore Sigma, Cat. No. R2283) for 5-10 minutes at 37° C.; (2) for staining with MGP, COMP, DPT, ACAN, and ALPL, tissues were incubated in citrate buffer (Millipore Sigma, Cat. No. C9999) for 1 hour at 70° C., followed by a 15-second wash with distilled water. Cytofix/Cytoperm buffer (BD, Cat. No. 554722) was used in some cases to enhance intracellular staining. Tissues were blocked in staining solution—PBS supplemented with 5% donkey serum (Sigma, Cat. No. D9663) and 0.5% IgePal (Sigma, Cat. No. I3021)—for 30 minutes, then stained with primary antibodies overnight at 4° C. […]
Confocal Imaging. […] Maximum intensity projections were merged in Fiji/Image J (National Institutes of Health) for image analysis and quantifications. […]

CCC(=O)N(CCC(c1ccc2c(c1)OCO2)c1ccccc1OC)Cc1ccccc1 (stereo not drawn) [AGX51]
RUNX2, IBSP and COL1A1 (osteogenic) gene expression ([1]; 30 μM AGX51 every 2-3 days for 28 days, qRT-PCR at days 3, 7, 14, 21, 28, versus vehicle): initial decrease in RUNX2 and IBSP expression at days 3 and 7, followed by an increase in RUNX2, IBSP, and COL1A1 expression from days 21-28 | chondrogenic gene expression (SOX9, ACAN, and COL2A1) ([1]; 30 μM AGX51 for 28 days, qRT-PCR): initially decreased, but stabilized

Cl.c1ccc2c(-c3cnn4cc(-c5ccc(N6CCNCC6)cc5)cnc34)ccnc2c1 [LDN 193189, 4-(6-(4-(piperazin-1-yl)phenyl)pyrazolo[1,5-a]pyrimidin-3-yl)quinoline hydrochloride]
hypertrophic expression [2]: does not prevent hypertrophic expression

c1ccc2c(Oc3nc(Nc4ccc(N5CCOCC5)cc4)c4ncn(C5CCCCC5)c4n3)cccc2c1 [purmorphamine]
suitability as Hedgehog agonist for sclerotome induction [3]: effective substitute for the commercially-synthesized Hedgehog agonist 21K

TGFβ1: transforming growth factor β1, recombinant growth factor in chondrogenic medium
IBSP+ cell populations [4]: About 90% | matrix protein expression in sclerotome-derived pellet cultures [5]: stable COL1A1 and COL2A1 expression across 42 days, with sporadic ACAN and minimal PRG4 expression
